Assay results from patent EP2987533B1, “7-substituted piperazin-1-yl fluoroquinolone compounds, their use in the treatment of cancer, pharmaceutical compositions and a method for preparation” (priority 2014, dated 2016).

What was measured:
Test in all cases: NCI one-dose SRB growth assay
Assay type in all cases: cell-based
[1] = test system: PC-3; details: Homo sapiens; PC-3 (Prostate Cancer), 10^-5 M, 48 h; read-out: % Growth Inhibition (GI %)
Outline: (§1)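 Growth percentage versus untreated controls was derived from SRB protein-dye absorbance after cells were incubated 48 h with test compound at a single 10^-5M dose.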

[2] = test system: IGROV1; details: Homo sapiens, IGROV-1; IGROV1 (Ovarian Cancer), 10^-5 M, 48 h; read-out: % Growth Inhibition (GI %)
[3] = test system: HOP-62; details: Homo sapiens; HOP-62 (Non-Small Cell Lung Cancer), 10^-5 M, 48 h; read-out: % Growth Inhibition (GI %)
Outline: as §1

[4] = test system: HCT-116; details: Homo sapiens; HCT-116 (Colon Cancer), 10^-5 M, 48 h; read-out: % Growth Inhibition (GI %)
Outline: as §1

[5] = test system: KM12; details: Homo sapiens; KM12 (Colon Cancer), 10^-5 M, 48 h; read-out: % Growth Inhibition (GI %)
Outline: as §1

[6] = test system: SK-MEL-28; details: Homo sapiens; SK-MEL-28 (Melanoma), 10^-5 M, 48 h; read-out: % Growth Inhibition (GI %)
Outline: as §1

[7] = test system: CCRF-CEM; details: Homo sapiens; CCRF-CEM (Leukemia), 10^-5 M, 48 h; read-out: % Growth Inhibition (GI %)
[8] = test system: TK-10; details: Homo sapiens; TK-10 (Renal Cancer), 10^-5 M, 48 h; read-out: % Growth Inhibition (GI %)
[9] = test system: SW-620; details: Homo sapiens; SW-620 (Colon Cancer), 10^-5 M, 48 h; read-out: % Growth Inhibition (GI %)
[10] = test system: OVCAR-4; details: Homo sapiens; OVCAR-4 (Ovarian Cancer), 10^-5 M, 48 h; read-out: % Growth Inhibition (GI %)
Outline: as §1

[11] = test system: MOLT-4; details: Homo sapiens; MOLT-4 (Leukemia), 10^-5 M, 48 h; read-out: % Growth Inhibition (GI %)
Outline: as §1

[12] = test system: K-562; details: Homo sapiens, K562; K-562 (Leukemia), 10^-5 M, 48 h; read-out: % Growth Inhibition (GI %)
Outline: as §1

[13] = test system: MCF7; details: Homo sapiens; MCF7 (Breast Cancer), 10^-5 M, 48 h; read-out: % Growth Inhibition (GI %)
Outline: as §1

[14] = test system: SNB-19; details: Homo sapiens; SNB-19 (CNS Cancer), 10^-5 M, 48 h; read-out: % Growth Inhibition (GI %)
Outline: as §1

[15] = test system: NCI-H522; details: Homo sapiens; NCI-H522 (Non-Small Cell Lung Cancer), 10^-5 M, 48 h; read-out: % Growth Inhibition (GI %)
Outline: as §1

[16] = test system: NCI/ADR-RES; details: Homo sapiens; NCI/ADR-RES (Ovarian Cancer), 10^-5 M, 48 h; read-out: % Growth Inhibition (GI %)
Outline: as §1

[17] = test system: UACC-62; details: Homo sapiens; UACC-62 (Melanoma), 10^-5 M, 48 h; read-out: % Growth Inhibition (GI %)
Outline: as §1

[18] = test system: SF-539; details: Homo sapiens; SF-539 (CNS Cancer), 10^-5 M, 48 h; read-out: % Growth Inhibition (GI %)
Outline: as §1

[19] = test system: M14; details: Homo sapiens; M14 (Melanoma), 10^-5 M, 48 h; read-out: % Growth Inhibition (GI %)
Outline: as §1

[20] = test system: SN12C; details: Homo sapiens; SN12C (Renal Cancer), 10^-5 M, 48 h; read-out: % Growth Inhibition (GI %)
Outline: as §1

[21] = test system: HCT-15; details: Homo sapiens; HCT-15 (Colon Cancer), 10^-5 M, 48 h; read-out: % Growth Inhibition (GI %)
Outline: as §1

[22] = test system: SF-268; details: Homo sapiens; SF-268 (CNS Cancer), 10^-5 M, 48 h; read-out: % Growth Inhibition (GI %)
[23] = test system: DU-145; details: Homo sapiens; DU-145 (Prostate Cancer), 10^-5 M, 48 h; read-out: % Growth Inhibition (GI %)
Outline: as §1

[24] = test system: SF-295; details: Homo sapiens; SF-295 (CNS Cancer), 10^-5 M, 48 h; read-out: % Growth Inhibition (GI %)
Outline: as §1

[25] = test system: SK-MEL-2; details: Homo sapiens; SK-MEL-2 (Melanoma), 10^-5 M, 48 h; read-out: % Growth Inhibition (GI %)
[26] = test system: SK-MEL-5; details: Homo sapiens; SK-MEL-5 (Melanoma), 10^-5 M, 48 h; read-out: % Growth Inhibition (GI %)
Outline: as §1

`CCn1cc(C(=O)O)c(=O)c2cc(F)c(N3CCN(S(=O)(=O)c4cccc5ccccc45)CC3)cc21` [Compound 7a] showed an inhibition at 10 µM [1] of 92.2%, an inhibition at 10 µM [2] of 86.3% and an inhibition at 10 µM [3] of 84.9%. For the same compound, the inhibition at 10 µM [4] was 94.5%, the inhibition at 10 µM [5] was 88.3% and the inhibition at 10 µM [6] was 40.8%. It also gave an inhibition at 10 µM [7] of 87.9%, an inhibition at 10 µM [8] of 74% and an inhibition at 10 µM [9] of 77.2%. It also gave an inhibition at 10 µM [10] of 76.2%, an inhibition at 10 µM [11] of 91.6% and an inhibition at 10 µM [12] of 84.6%. It also gave an inhibition at 10 µM [13] of 85.4%, an inhibition at 10 µM [14] of 71.2% and an inhibition at 10 µM [15] greater than 100%. It also gave an inhibition at 10 µM [16] of 78.7%, an inhibition at 10 µM [17] of 68.8% and an inhibition at 10 µM [18] of 82.6%. It also gave an inhibition at 10 µM [19] of 82.1%, an inhibition at 10 µM [20] of 88.1% and an inhibition at 10 µM [21] of 88.9%. For the same compound, the inhibition at 10 µM [22] was 83.6%, the inhibition at 10 µM [23] was 81.1% and the inhibition at 10 µM [24] was 92.3%. For the same compound, the inhibition at 10 µM [25] was 91.2% and the inhibition at 10 µM [26] was greater than 100%.
